Reference: ChEMBL document CHEMBL1909046, “DrugMatrix in vitro pharmacology data”

How the values were obtained:
[1] = DRUGMATRIX: Purinergic P2X radioligand binding (ligand: [3H] alpha, beta-Methylene-ATP); type: cell membranes, Oryctolagus cuniculus, New Zealand albino, Urinary bladder, Membrane; conditions: Not Active = under 50% inhibition at 10 µM
Nitric oxide synthase 1 = Nitric oxide synthase 1 (Rattus norvegicus, UniProt P29476); type: tissue-based, Cerebellum; note: in other assays of this panel Not Active means under 50% inhibition at 10 µM
[2] = target: Platelet-activating factor receptor (Homo sapiens, UniProt P25105); type: tissue-based; note: in other assays of this panel Not Active means under 50% inhibition at 10 µM
[3] = target: T1, 5-hydroxytryptamine receptor 1A (Rattus norvegicus, UniProt P19327); type: cell membranes, CHO-K1, Membrane; conditions: cho-k1; note: in other assays of this panel Not Active means under 50% inhibition at 10 µM
T1 sequence (P19327 whole entry): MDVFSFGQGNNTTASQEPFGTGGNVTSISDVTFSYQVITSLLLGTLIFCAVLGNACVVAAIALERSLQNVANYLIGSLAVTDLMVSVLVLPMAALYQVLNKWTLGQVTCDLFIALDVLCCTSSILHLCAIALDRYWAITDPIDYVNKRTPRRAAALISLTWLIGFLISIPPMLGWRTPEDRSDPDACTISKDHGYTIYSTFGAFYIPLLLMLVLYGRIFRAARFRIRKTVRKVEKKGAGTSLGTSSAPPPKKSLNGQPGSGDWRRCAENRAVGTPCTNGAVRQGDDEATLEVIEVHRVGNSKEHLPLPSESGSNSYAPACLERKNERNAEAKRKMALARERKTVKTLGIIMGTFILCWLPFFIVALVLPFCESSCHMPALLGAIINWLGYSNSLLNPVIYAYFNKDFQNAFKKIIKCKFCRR

[4] = DRUGMATRIX: GABAA, Chloride Channel, TBOB radioligand binding (ligand: [3H] TBOB); type: cell membranes, Rattus norvegicus, Wistar, Cerebral cortex, Membrane; conditions: Not Active = under 50% inhibition at 10 µM
[5] = DRUGMATRIX: GABAA, Muscimol, Central radioligand binding (ligand: [3H] Muscimol); type: cell membranes, Rattus norvegicus, Wistar, Brain, Membrane; conditions: Not Active = under 50% inhibition at 10 µM
[6] = target: Mitogen-activated protein kinase 3 (Homo sapiens, UniProt P27361); experiment: DRUGMATRIX: Protein Serine/Threonine Kinase, ERK1 enzyme inhibition (substrate: Myelin Basic Protein); design: species or system Escherichia coli; conditions: Not Active = under 50% inhibition at 10 µM
Calcitonin receptor = target: T2, Calcitonin receptor (Homo sapiens, UniProt P30988); type: cell membranes, Membrane; conditions: t47d; note: in other assays of this panel Not Active means under 50% inhibition at 10 µM
T2 sequence (P30988 whole entry): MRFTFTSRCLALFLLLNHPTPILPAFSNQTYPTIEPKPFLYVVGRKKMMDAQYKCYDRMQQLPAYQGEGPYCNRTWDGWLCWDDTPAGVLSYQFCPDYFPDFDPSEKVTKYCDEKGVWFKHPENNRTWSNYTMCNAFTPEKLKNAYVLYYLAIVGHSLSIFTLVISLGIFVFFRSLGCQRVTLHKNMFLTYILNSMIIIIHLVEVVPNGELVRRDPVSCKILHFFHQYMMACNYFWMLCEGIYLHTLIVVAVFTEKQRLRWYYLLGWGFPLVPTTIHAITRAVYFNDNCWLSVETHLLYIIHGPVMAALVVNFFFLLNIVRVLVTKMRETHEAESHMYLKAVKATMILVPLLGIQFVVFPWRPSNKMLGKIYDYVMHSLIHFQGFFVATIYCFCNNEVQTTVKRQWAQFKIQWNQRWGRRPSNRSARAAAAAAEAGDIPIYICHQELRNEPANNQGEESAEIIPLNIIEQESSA

Sequence of Mitogen-activated protein kinase 3 (P27361 whole entry): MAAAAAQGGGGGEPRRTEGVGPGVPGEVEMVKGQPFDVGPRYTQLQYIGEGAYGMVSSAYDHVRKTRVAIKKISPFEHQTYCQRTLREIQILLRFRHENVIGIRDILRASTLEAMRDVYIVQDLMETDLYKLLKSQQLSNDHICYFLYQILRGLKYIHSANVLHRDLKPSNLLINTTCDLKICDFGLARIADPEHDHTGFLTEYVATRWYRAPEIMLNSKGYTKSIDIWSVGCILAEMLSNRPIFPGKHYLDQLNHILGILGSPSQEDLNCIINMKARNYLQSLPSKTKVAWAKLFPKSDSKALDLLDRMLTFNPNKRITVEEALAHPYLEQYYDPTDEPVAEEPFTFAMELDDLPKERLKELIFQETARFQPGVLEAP
Sequence of Platelet-activating factor receptor (P25105 whole entry): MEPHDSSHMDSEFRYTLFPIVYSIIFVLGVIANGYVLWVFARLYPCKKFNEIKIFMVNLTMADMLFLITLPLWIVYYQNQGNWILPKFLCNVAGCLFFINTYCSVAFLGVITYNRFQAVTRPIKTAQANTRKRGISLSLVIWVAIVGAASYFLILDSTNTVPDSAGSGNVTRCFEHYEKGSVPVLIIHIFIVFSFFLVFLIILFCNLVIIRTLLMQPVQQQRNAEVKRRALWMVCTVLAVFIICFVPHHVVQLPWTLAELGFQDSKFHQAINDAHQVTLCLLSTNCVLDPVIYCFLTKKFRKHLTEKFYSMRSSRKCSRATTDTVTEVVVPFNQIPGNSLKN
Sequence of Nitric oxide synthase 1 (P29476 whole entry): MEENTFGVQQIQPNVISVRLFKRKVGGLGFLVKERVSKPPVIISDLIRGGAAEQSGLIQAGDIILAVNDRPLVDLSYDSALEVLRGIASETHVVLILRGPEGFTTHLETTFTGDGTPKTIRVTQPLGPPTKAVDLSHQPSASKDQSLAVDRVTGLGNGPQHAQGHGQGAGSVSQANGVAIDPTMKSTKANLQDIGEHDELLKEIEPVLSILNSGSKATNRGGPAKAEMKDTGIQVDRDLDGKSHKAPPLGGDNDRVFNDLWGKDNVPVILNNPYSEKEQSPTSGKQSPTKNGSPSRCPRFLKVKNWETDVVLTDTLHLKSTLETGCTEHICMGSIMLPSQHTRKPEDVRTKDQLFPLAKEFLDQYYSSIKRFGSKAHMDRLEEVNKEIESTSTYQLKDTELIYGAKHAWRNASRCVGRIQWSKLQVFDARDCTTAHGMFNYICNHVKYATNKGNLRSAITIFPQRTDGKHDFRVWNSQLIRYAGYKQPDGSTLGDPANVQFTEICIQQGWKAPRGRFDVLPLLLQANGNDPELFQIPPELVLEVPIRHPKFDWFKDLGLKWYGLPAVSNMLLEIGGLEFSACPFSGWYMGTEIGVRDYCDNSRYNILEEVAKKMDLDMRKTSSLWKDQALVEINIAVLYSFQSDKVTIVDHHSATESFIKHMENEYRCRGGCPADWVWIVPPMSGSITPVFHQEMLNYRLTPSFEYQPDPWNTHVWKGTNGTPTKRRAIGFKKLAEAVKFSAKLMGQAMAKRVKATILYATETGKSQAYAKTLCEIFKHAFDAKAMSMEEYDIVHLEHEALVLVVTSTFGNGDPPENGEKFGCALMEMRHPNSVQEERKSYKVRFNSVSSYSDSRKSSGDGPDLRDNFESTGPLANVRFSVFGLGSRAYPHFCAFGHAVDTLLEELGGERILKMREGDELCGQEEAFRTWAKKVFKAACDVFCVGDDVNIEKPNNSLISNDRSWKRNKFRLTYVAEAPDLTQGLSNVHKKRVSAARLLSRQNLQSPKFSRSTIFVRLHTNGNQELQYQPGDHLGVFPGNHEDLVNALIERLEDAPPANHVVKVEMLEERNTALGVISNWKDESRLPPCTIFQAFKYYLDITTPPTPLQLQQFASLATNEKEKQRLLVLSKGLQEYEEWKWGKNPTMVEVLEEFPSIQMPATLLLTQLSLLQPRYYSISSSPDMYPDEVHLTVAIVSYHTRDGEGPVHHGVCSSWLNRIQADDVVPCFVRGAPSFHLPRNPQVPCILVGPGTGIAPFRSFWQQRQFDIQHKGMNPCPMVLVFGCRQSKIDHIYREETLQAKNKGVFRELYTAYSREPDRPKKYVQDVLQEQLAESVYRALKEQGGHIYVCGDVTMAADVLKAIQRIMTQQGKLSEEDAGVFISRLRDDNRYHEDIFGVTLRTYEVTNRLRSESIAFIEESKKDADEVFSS

Cc1cn([C@H]2C=C[C@@H](CO)O2)c(=O)[nH]c1=O [STAVUDINE]
Not Active: IC50 [1] | Ki [1] | IC50 (Nitric oxide synthase 1) | IC50 [2] | IC50 [3] | IC50 [4] | Ki [4] | IC50 [5] | Ki [5] | IC50 [6] | IC50 (Calcitonin receptor)

Cc1cnc(NC(=O)C2=C(O)c3ccccc3S(=O)(=O)N2C)s1 [MELOXICAM]
Not Active: IC50 [1] | Ki [1] | IC50 (Nitric oxide synthase 1) | IC50 [2] | IC50 [3] | IC50 [4] | Ki [4] | IC50 [5] | Ki [5] | IC50 [6] | IC50 (Calcitonin receptor)

CC(O)C(=O)O (stereo not given) [LACTIC ACID]
Not Active: IC50 [1] | Ki [1] | IC50 (Nitric oxide synthase 1) | IC50 [2] | IC50 [3] | IC50 [4] | Ki [4] | IC50 [5] | Ki [5] | IC50 [6] | IC50 (Calcitonin receptor)

C1CCN2C[C@@H]3C[C@@H](CN4CCCC[C@@H]34)[C@H]2C1 [SPARTEINE]
Not Active: IC50 [1] | Ki [1] | IC50 (Nitric oxide synthase 1) | IC50 [2] | IC50 [3] | IC50 [4] | Ki [4] | IC50 [5] | Ki [5] | IC50 [6] | IC50 (Calcitonin receptor)

CC(N)C12CC3CC(CC(C3)C1)C2 (stereo not given) [RIMANTADINE]
Not Active: IC50 [1] | Ki [1] | IC50 (Nitric oxide synthase 1) | IC50 [2] | IC50 [3] | IC50 [4] | Ki [4] | IC50 [5] | Ki [5] | IC50 [6] | IC50 (Calcitonin receptor)
